Reference: patent US6953810B2, “Nicotinamide biaryl derivatives useful as inhibitors of PDE4 isozymes” (Pfizer Inc, priority 2001, dated 2005)
“Also recorded” adds a separate entry of the source.

Key:
[1] = in vivo; cited from earlier work
[2] = tested on: late reactions to inhaled allergen; details: oral 15 and 30 mg, 9.5 days; cited from earlier work
[3] = tested on: catalytic site (Sc) of PDE4; details: cited from earlier work
[4] = tested on: antigen-induced lung eosinophilia; details: rat; cited from earlier work
rhinorrhea = details: in vivo; cited from earlier work
[5] = tested on: ex vivo TNF release and lymphocyte proliferation; details: oral dose of 300 mg; cited from earlier work
tumor cells = details: at micromolar concentrations; cited from earlier work
guinea-pig trachea = details: cited from earlier work
[6] = tested on: airway hyper-responsiveness (AHR); details: guinea-pig; PAF-, ozone- or ACh-induced; cited from earlier work
[7] = tested on: lung, BAL, airway and pleural eosinophilia; details: guinea-pig; cited from earlier work
[8] = tested on: antigen-induced bronchoconstriction; details: guinea-pig; cited from earlier work
SCW-induced arthritis = details: in vivo; cited from earlier work
[9] = tested on: rheumatoid arthritis patients; set-up: dose or concentration left out as unconfirmed; details: 35 patients; cited from earlier work
[10] = tested on: psoriatic epidermal slices; details: psoriatic and keratomed psoriatic epidermal slices; cited from earlier work
psoriatic lesions = details: two double-blind studies; cited from earlier work
patients = details: oral 5, 10, and 15 mg b.i.d., week 2; cited from earlier work
bone marrow culture = details: cited from earlier work
[11] = tested on: lipopolysaccharide-induced mesenteric blood flow fall; details: dog, in vivo; cited from earlier work
[12] = tested on: human peripheral blood mononuclear cells (HPBM); details: normal patients and subjects with atopic dermatitis; cited from earlier work
[13] = tested on: isolated pulmonary artery rings; details: cited from earlier work
[14] = tested on: experimental allergic encephalomyelitis; details: marmoset; cited from earlier work
[15] = tested on: collagen II induced arthritis; details: 3 mg/kg twice daily when arthritis was apparent; cited from earlier work
[16] = tested on: chronic relapsing experimental allergic encephalomyelitis; details: SJL mice; cited from earlier work

## Nc1nc2c([nH]1)c(=O)n(CC1CC1)c(=O)n2CC1CC1 [BRL-61,063, cipamfylline]
[1]
  emesis, nausea, vomiting: adverse events of nausea and vomiting

## COc1ccc([C@H](Cc2ccncc2)c2ccccc2)cc1OC1CCCC1 [CDP840]
[2]
  late reactions / late-phase response to inhaled allergen: suppression; also recorded: significant inhibition
[1]
  emesis, nausea, vomiting: without any adverse events of nausea or headache
[3]
  potency at the Sc compared with SB-207,499: significantly higher potency

## Cc1cc2c3c(c1)C(c1ccccc1)=N[C@@H](NC(=O)c1ccncc1)C(=O)N3CC2 [CI-1018]
[4]
  oral potency ED50: 5 mg/kg

## COc1ccc(C2CNC(=O)NC2)cc1O[C@H]1C[C@@H]2CC[C@H]1C2 [CP-80,633, atizoram]
[1]
  emesis, nausea, vomiting: elicit emesis

## O=C(O)c1cccc(-c2ccc(CNC(=O)c3cccnc3Oc3ccc(F)cc3)cc2)c1 [Example 1, 4′-[[[2-[4-Fluorophenoxyl]-pyridine-3-carbonyl]-amino]-methyl]-biphenyl-3-carboxylic acid]
other
  melting point: 184 to 186 °C

## O=C(O)c1cccc(-c2ccc(CNC(=O)c3cccnc3Oc3ccc4c(c3)OCO4)c(F)c2)c1 [Example 3]
other
  melting point: 190 to 192 °C

## N#Cc1cccc(Oc2ncccc2C(=O)NCc2ccc(-c3cccc(C(=O)O)c3)cc2F)c1 [Example 4, 4′-[[[2-[3-Cyano-phenoxy]-pyridine-3-carbonyl]-amino]-methyl]-biphenyl-3′-fluoro-biphenyl-3-carboxylic acid]
other
  melting point: 200 to 202 °C

## CCCC1C(=O)C2=C(C(CC)=NC2C)c2nc(OC)ccc21 [Example D-22888]
rhinorrhea
  rhinorrhea in the antigen-challenged pig: inhibit rhinorrhea

## CCNc1ncn(Cc2ccc(OC)c(OC3CCCC3)c2)c2nc(C(C)C)nc1-2 [Example V-11294A]
[5]
  reduction of TNF levels and lymphocyte proliferation: effective

## Clc1nc2c(N3CCCC3)nc(N3CCNCC3)nc2nc1NCc1ccccc1 [Formula (0.0.55)]
Tumor cells
  inhibition of growth of tumor cells: inhibit the growth of tumor cells

## O=S1(=O)CCN(c2nc(NC3CC3)nc(C3CC3)n2)C1 [Formula (0.0.56)]
guinea-pig trachea
  relaxation in a guinea-pig trachea model: potent relaxant agents

## CC1CC1c1nc(NC2CC2)nc(N2CCOCC2)n1 (stereo not drawn) [Formula (0.0.57)]
guinea-pig trachea
  relaxation in a guinea-pig trachea model: potent relaxant agents

## O=c1c2[nH]cnc2c2cccnc2n1-c1ccccc1 [KF17625]
[6]
  inhibition of airway hyper-responsiveness (AHR): activity
[7]
  inhibition of antigen-induced lung, BAL or airway eosinophilia: activity
[8]
  inhibition of antigen-induced bronchoconstriction: activity

## O=c1c2c(ncn2Cc2cccnc2)c2cccnc2n1-c1ccccc1 [KF19514]
[6]
  inhibition of airway hyper-responsiveness (AHR): activity
[7]
  inhibition of antigen-induced lung, BAL or airway eosinophilia: activity
[8]
  inhibition of antigen-induced bronchoconstriction: activity

## COc1ccc(C(=O)Nc2c(Cl)cncc2Cl)cc1OC1CCCC1 [RP73401]
SCW-induced arthritis
  disease in SCW-induced arthritis (joint destruction, synovitis, fibrosis): significant amelioration of disease
[9]
  clinical improvement with reduction in C-reactive protein and IL-6 serum levels: positive trend towards clinical improvement

## COc1ccc(C(=O)Nc2c(Cl)cncc2Cl)cc1OC1CCCC1 [RP-73,401, piclamilast]
[6]
  inhibition of airway hyper-responsiveness (AHR): active
[7]
  inhibition of IL-5 induced pleural eosinophila: active
  inhibition of antigen-induced lung, BAL or airway eosinophilia: active
[1]
  emesis, nausea, vomiting: elicit emesis

## O=c1c2cccnc2n(-c2cccc([N+](=O)[O-])c2)c(=O)n1Cc1ccncc1 [RS-23,544]
[1]
  emesis, nausea, vomiting: elicit emesis

## COc1ccc(CC2CNC(=O)N2)cc1OC1CCCC1 (stereo not drawn) [Ro 20-1724]
[10]
  elevation of cAMP concentrations over controls: very marked elevation
Psoriatic lesions
  psoriatic lesions versus vehicle: improve psoriatic lesions

## COc1ccc([C@]2(C#N)CC[C@@H](C(=O)O)CC2)cc1OC1CCCC1 [SB-207,499]
patients
  trough FEV1 versus placebo: significant increases

## CCCCn1c(=O)c2c(ncn2CC(C)=O)n(CCCC)c1=O [denbufylline]
Bone marrow culture
  mineralized nodules in bone marrow culture: increase in the number of mineralized nodules
[11]
  potency relative to pentoxifylline in inhibiting lipopolysaccharide-induced mesenteric blood flow fall: 100 fold
[12]
  inhibition of proliferation of HPBM: concentration-related inhibition

## Cc1[nH]c(=O)c(C#N)cc1-c1ccncc1 [milrinone]
[13]
  effect on relaxant activities of isoproterenol and forskolin: same effect

## COc1ccc(C2CNC(=O)C2)cc1OC1CCCC1 (stereo not drawn) [rolipram]
[14]
  clinical signs of EAE: suppress the appearance of clinical signs
[15]
  development of disease: progression of severity was halted
[16]
  clinical signs and pathological changes of chronic relapsing EAE: ameliorates clinical signs and pathological changes
[13]
  effect on relaxant activities of isoproterenol and forskolin: potentiates the relaxant activities of isoproterenol and forskolin
[12]
  inhibition of proliferation of HPBM: concentration-related inhibition
